For this assay, the target named is T1, Aurora kinase A (Homo sapiens, UniProt O14965).
T1 sequence (O14965 whole entry): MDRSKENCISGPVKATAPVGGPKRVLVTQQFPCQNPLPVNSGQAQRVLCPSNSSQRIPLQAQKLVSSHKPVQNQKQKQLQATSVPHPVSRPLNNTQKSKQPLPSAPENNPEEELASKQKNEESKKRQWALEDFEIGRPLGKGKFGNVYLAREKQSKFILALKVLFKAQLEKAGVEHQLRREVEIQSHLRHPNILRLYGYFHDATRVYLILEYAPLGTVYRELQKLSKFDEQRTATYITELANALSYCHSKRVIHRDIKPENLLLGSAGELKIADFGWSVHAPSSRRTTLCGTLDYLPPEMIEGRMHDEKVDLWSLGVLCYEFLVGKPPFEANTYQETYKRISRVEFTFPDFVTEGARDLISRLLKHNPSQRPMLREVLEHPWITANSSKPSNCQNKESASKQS
Nature of the assay: Inhibition of Aurora kinase A.

As a reminder, the IC50 is the concentration needed to halve the response being measured. A low value points to greater potency. As for `CCCCCCNc1ncnc2nc[nH]c12`, the IC50 was above 100 µM.

In turn, `CCCCNC(=O)c1cccc(NC(=O)CCCCCCNc2cc(N)ncn2)c1` yielded an IC50 of 17 µM. In other words, the double-digit micromolar range.

`CCCCNC(=O)c1cccc(NC(=O)CCCCCNc2ncnc3nc[nH]c23)c1` had an IC50 of 2.9 µM.

Values taken from ChEMBL document CHEMBL1155089, “Discovery of an Aurora kinase inhibitor through site-specific dynamic combinatorial chemistry” (Bioorg Med Chem Lett, 2008).
